# How the values were obtained:
# [1] = background statement, in words; cited from earlier work
# [2] = Solubility at room temperature; format: physicochemical; conditions: for Solubility, Acetone: in words
# Description: Then, solubility at room temperature of the resulting compound is measured.
Substance,solubility in an organic solvent [1],water-solubility [1],"Solubility, DMF [2]","Solubility, Acetone [2]","Solubility, Dilute aqueous alkaline solution [2]","Solubility, Methanol [2]","Solubility, Water [2]"
C.I. Solvent Blue-70,soluble in an organic solvent,,,,,,
Tetrasulfonic acid copper phthalocyanine [C.I. Acid Blue-249],,insufficient,,,,,
tetrakis(sulfobenzamide) copper naphthalocyanine [Example 5],,,> 2.0%,insoluble,< 1.5%,< 0.1%,
tetrakis(sulfobenzamide) copper phthalocyanine [Example 1],,,,insoluble,,> 5%,> 10%
tetrakis(sulfobenzamide) nickel naphthalocyanine [Example 4],,,> 2.0%,insoluble,< 1.5%,< 0.1%,
tetrakis(sulfobenzamide) phthalocyanine [Example 2],,,,insoluble,,> 5%,> 10%
